# Patent US20240358693A1, “METHODS OF TREATING PAIN” (Aisa Pharma, Inc., priority 2023, published 2024)
# Test system: participants with SSc-RP
# Experiment: Scleroderma Health Assessment Questionnaire (SHAQ): disability indices and visual analog scales
# Type: in vivo, human
# Conditions: for SHAQ Standard Disability Index: Baseline, Mean / SHAQ Standard Disability Index: Baseline, Median / SHAQ Standard Disability Index: Change from Baseline (Day 12), Mean / SHAQ Standard Disability Index: Change from Baseline (Day 12), Median / SHAQ Standard Disability Index: In-Clinic Visit (Day 12), Mean / SHAQ Standard Disability Index: In-Clinic Visit (Day 12), Median / SHAQ Standard Disability Index: Percent Change from Baseline (Day 12), Mean / SHAQ Standard Disability Index: Percent Change from Baseline (Day 12), Median: PP Population
# How it was run: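 Participants with SSc-RP completed the SHAQ at screening and each in-clinic visit. Standard and alternative disability indices (eight categories, 0–3; standard adjusts for aids/assistance) plus Raynaud's VAS on interference over the past 7 days. Reported as absolute change from baseline to end of each dosing period.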
# [1] = Pooled Cilnidipine (N = 7), sensitivity analysis, Modified ITT, Part A
# [2] = Pooled Cilnidipine (N = 8), Day 12, PP Population Part A, SSc patients
# [3] = Pooled Cilnidipine (N = 8), PP Population Part A, SSc patients
# [4] = Pooled Cilnidipine (n = 7), mITT population
# [5] = Table C9, Part A, sensitivity analysis, Pooled Cilnidipine 10 mg and Cilnidipine 10 mg + Tadalafil 5 mg
# [6] = Table C9, Part A, sensitivity analysis, Pooled Cilnidipine 20 mg and Cilnidipine 20 mg + Tadalafil 5 mg
# [7] = Table C9, Part A, sensitivity analysis, pooled cilnidipine 10 mg and 20 mg arms (plus tadalafil 5 mg where labelled)
# [8] = Table C10, Part A, sensitivity analysis, Pooled Cilnidipine 10 mg and Cilnidipine 10 mg + Tadalafil 5 mg
# [9] = Table C10, Part A, sensitivity analysis, Pooled Cilnidipine 20 mg and Cilnidipine 20 mg + Tadalafil 5 mg
# [10] = Table C10, Part A, sensitivity analysis, pooled cilnidipine 10 mg and 20 mg arms (plus tadalafil 5 mg where labelled)
smiles,measurement,setting,value
"COCCOC(=O)C1=C(C)NC(C)=C(C(=O)OC/C=C/c2ccccc2)C1c1cccc([N+](=O)[O-])c1 (stereo not drawn) [Cilnidipine, cilnidipine]","SHAQ VAS Breathing Problems: Change from Baseline, Median",[1],0.000
same,"SHAQ VAS Breathing Problems: Day 12, Mean",[1],1.029
same,"SHAQ VAS Breathing Problems: Day 12, Median",[1],0.000
same,"SHAQ VAS Breathing Problems: Percent Change from Baseline, Mean",[1],−8.17%
same,"SHAQ VAS Breathing Problems: Percent Change from Baseline, Median",[1],−41.33%
same,"SHAQ VAS Finger Ulcers: Baseline, Mean",[1],1.171
same,"SHAQ VAS Finger Ulcers: Baseline, Median",[1],0.300
same,"SHAQ VAS Finger Ulcers: Change from Baseline, Mean",[1],−0.643
same,"SHAQ VAS Finger Ulcers: Change from Baseline, Median",[1],0.000
same,"SHAQ VAS Finger Ulcers: Day 12, Mean",[1],0.529
same,"SHAQ VAS Finger Ulcers: Day 12, Median",[1],0.000
same,"SHAQ VAS Finger Ulcers: Percent Change from Baseline, Mean",[1],−17.08%
same,"SHAQ VAS Finger Ulcers: Percent Change from Baseline, Median",[1],−50.82%
same,"SHAQ VAS Intestinal Problems: Baseline, Mean",[1],2.057
same,"SHAQ VAS Intestinal Problems: Baseline, Median",[1],1.000
same,"SHAQ VAS Intestinal Problems: Change from Baseline, Mean",[1],−0.943
same,"SHAQ VAS Intestinal Problems: Change from Baseline, Median",[1],0.000
same,"SHAQ VAS Intestinal Problems: Day 12, Mean",[1],1.114
same,"SHAQ VAS Intestinal Problems: Day 12, Median",[1],0.600
same,"SHAQ VAS Intestinal Problems: Percent Change from Baseline, Mean",[1],−32.42%
same,"SHAQ VAS Intestinal Problems: Percent Change from Baseline, Median",[1],−44.12%
same,"SHAQ VAS Overall Disease Severity: Baseline, Mean",[1],2.700
same,"SHAQ VAS Overall Disease Severity: Baseline, Median",[1],2.900
same,"SHAQ VAS Overall Disease Severity: Change from Baseline, Mean",[1],−1.214
same,"SHAQ VAS Overall Disease Severity: Change from Baseline, Median",[1],−1.500
same,"SHAQ VAS Overall Disease Severity: Day 12, Mean",[1],1.486
same,"SHAQ VAS Overall Disease Severity: Day 12, Median",[1],1.200
same,"SHAQ VAS Overall Disease Severity: Percent Change from Baseline, Mean",[1],−59.80%
same,"SHAQ VAS Overall Disease Severity: Percent Change from Baseline, Median",[1],−55.86%
same,"SHAQ VAS Pain: Baseline, Mean",[1],2.057
same,"SHAQ VAS Pain: Baseline, Median",[1],1.700
same,"SHAQ VAS Pain: Change from Baseline, Mean",[1],−0.529
same,"SHAQ VAS Pain: Change from Baseline, Median",[1],−0.500
same,"SHAQ VAS Pain: Day 12, Mean",[1],1.529
same,"SHAQ VAS Pain: Day 12, Median",[1],1.000
same,"SHAQ VAS Pain: Percent Change from Baseline, Mean",[1],−31.22%
same,"SHAQ VAS Pain: Percent Change from Baseline, Median",[1],−44.98%
same,"SHAQ VAS Raynaud's: Baseline, Mean",[1],1.900
same,"SHAQ VAS Raynaud's: Baseline, Median",[1],1.100
same,"SHAQ VAS Raynaud's: Change from Baseline, Mean",[1],−0.357
same,"SHAQ VAS Raynaud's: Change from Baseline, Median",[1],−0.300
same,"SHAQ VAS Raynaud's: Day 12, Mean",[1],1.543
same,"SHAQ VAS Raynaud's: Day 12, Median",[1],1.100
same,"SHAQ VAS Raynaud's: Percent Change from Baseline, Mean",[1],−18.64%
same,"SHAQ VAS Raynaud's: Percent Change from Baseline, Median",[1],−38.67%
same,"SHAQ Standard Disability Index, Change from Baseline, Mean",[2],−0.031
same,"SHAQ Standard Disability Index, Change from Baseline, Median",[2],0.000
same,"SHAQ Standard Disability Index, Percent Change from Baseline, Mean",[2],−16.00%
same,"SHAQ Standard Disability Index, Percent Change from Baseline, Median",[2],0.00%
same,"SHAQ Standard Disability Index, In-Clinic Visit (Day 12), Mean",[3],0.469
same,"SHAQ Standard Disability Index, In-Clinic Visit (Day 12), Median",[3],0.188
same,SHAQ % change VAS Raynauds,[4],−17%
same,SHAQ % change in Alternative Disability Index,[4],−13%
same,SHAQ % change in Pain,[4],−31%
same,SHAQ % change in Standard Disability Index,[4],−25%
same,SHAQ % change overall SSc Disease Severity,[4],−60%
same,SHAQ % improvement in Breathing (median),[4],41%
same,SHAQ % improvement in VAS Digital Ulcers,[4],19%
same,"SHAQ % Δ from baseline, VAS Breathing, mean",Pooled cilnidipine (4),−8.2%
same,"SHAQ % Δ from baseline, VAS Breathing, median",Pooled cilnidipine (4),−41.3%
same,"SHAQ % Δ from baseline, VAS Finger Ulcers, mean",Pooled cilnidipine (4),−17.1%
same,"SHAQ % Δ from baseline, VAS Finger Ulcers, median",Pooled cilnidipine (4),−50.9%
same,"SHAQ % Δ from baseline, alternative disability, mean",Pooled cilnidipine (4),−12.9%
same,"SHAQ % Δ from baseline, alternative disability, median",Pooled cilnidipine (4),−22.2%
same,"SHAQ % Δ from baseline, standard disability, mean",Pooled cilnidipine (4),−25%
same,"SHAQ % Δ from baseline, standard disability, median",Pooled cilnidipine (4),−16.7%
same,"SHAQ % Δ from baseline, Intestinal Problems, mean",Pooled cilnidipine (5),−32.4%
same,"SHAQ % Δ from baseline, Intestinal Problems, median",Pooled cilnidipine (5),−44.1%
same,"SHAQ % Δ from baseline, VAS Overall Disease Severity, mean",Pooled cilnidipine (6),−59.8%
same,"SHAQ % Δ from baseline, VAS Overall Disease Severity, median",Pooled cilnidipine (6),−55.9%
same,"SHAQ % Δ from baseline, VAS Pain, mean",Pooled cilnidipine (6),−31.2%
same,"SHAQ % Δ from baseline, VAS Pain, median",Pooled cilnidipine (6),−45%
same,"SHAQ % Δ from baseline, VAS Raynaud's, mean",Pooled cilnidipine (6),−18.6%
same,"SHAQ % Δ from baseline, VAS Raynaud's, median",Pooled cilnidipine (6),−38.7%
same,"SHAQ Standard Disability Index: Baseline, Mean",[5],0.597
same,"SHAQ Standard Disability Index: Baseline, Median",[5],0.500
same,"SHAQ Standard Disability Index: Change from Baseline (Day 12), Mean",[5],−0.021
same,"SHAQ Standard Disability Index: Change from Baseline (Day 12), Median",[5],0.000
same,"SHAQ Standard Disability Index: In-Clinic Visit (Day 12), Mean",[5],0.576
same,"SHAQ Standard Disability Index: In-Clinic Visit (Day 12), Median",[5],0.375
same,"SHAQ Standard Disability Index: Percent Change from Baseline (Day 12), Mean",[5],7.50%
same,"SHAQ Standard Disability Index: Percent Change from Baseline (Day 12), Median",[5],0.00%
same,"SHAQ Standard Disability Index: Baseline, Mean",[6],0.563
same,"SHAQ Standard Disability Index: Baseline, Median",[6],0.375
same,"SHAQ Standard Disability Index: Change from Baseline (Day 12), Mean",[6],−0.065
same,"SHAQ Standard Disability Index: Change from Baseline (Day 12), Median",[6],0.000
same,"SHAQ Standard Disability Index: In-Clinic Visit (Day 12), Mean",[6],0.498
same,"SHAQ Standard Disability Index: In-Clinic Visit (Day 12), Median",[6],0.250
same,"SHAQ Standard Disability Index: Percent Change from Baseline (Day 12), Mean",[6],−1.66%
same,"SHAQ Standard Disability Index: Percent Change from Baseline (Day 12), Median",[6],−12.82%
same,"SHAQ Standard Disability Index: Baseline, Mean",[7],0.500
same,"SHAQ Standard Disability Index: Baseline, Median",[7],0.375
same,"SHAQ Standard Disability Index: Change from Baseline (Day 12), Mean",[7],−0.031
same,"SHAQ Standard Disability Index: Change from Baseline (Day 12), Median",[7],0.000
same,"SHAQ Standard Disability Index: In-Clinic Visit (Day 12), Mean",[7],0.469
same,"SHAQ Standard Disability Index: In-Clinic Visit (Day 12), Median",[7],0.188
same,"SHAQ Standard Disability Index: Percent Change from Baseline (Day 12), Mean",[7],−16.00%
same,"SHAQ Standard Disability Index: Percent Change from Baseline (Day 12), Median",[7],0.00%
same,"SHAQ Standard Disability Index: Baseline, Mean",[8],0.597
same,"SHAQ Standard Disability Index: Baseline, Median",[8],0.500
same,"SHAQ Standard Disability Index: Change from Baseline (Day 12), Mean",[8],−0.021
same,"SHAQ Standard Disability Index: Change from Baseline (Day 12), Median",[8],0.000
same,"SHAQ Standard Disability Index: In-Clinic Visit (Day 12), Mean",[8],0.576
same,"SHAQ Standard Disability Index: In-Clinic Visit (Day 12), Median",[8],0.375
same,"SHAQ Standard Disability Index: Percent Change from Baseline (Day 12), Mean",[8],7.50%
same,"SHAQ Standard Disability Index: Percent Change from Baseline (Day 12), Median",[8],0.00%
same,"SHAQ Standard Disability Index: Baseline, Mean",[9],0.563
same,"SHAQ Standard Disability Index: Baseline, Median",[9],0.375
same,"SHAQ Standard Disability Index: Change from Baseline (Day 12), Mean",[9],−0.065
same,"SHAQ Standard Disability Index: Change from Baseline (Day 12), Median",[9],0.000
same,"SHAQ Standard Disability Index: In-Clinic Visit (Day 12), Mean",[9],0.498
same,"SHAQ Standard Disability Index: In-Clinic Visit (Day 12), Median",[9],0.250
same,"SHAQ Standard Disability Index: Percent Change from Baseline (Day 12), Mean",[9],−1.66%
same,"SHAQ Standard Disability Index: Percent Change from Baseline (Day 12), Median",[9],−12.82%
same,"SHAQ Standard Disability Index: Baseline, Mean",[10],0.500
same,"SHAQ Standard Disability Index: Baseline, Median",[10],0.375
same,"SHAQ Standard Disability Index: Change from Baseline (Day 12), Mean",[10],−0.031
same,"SHAQ Standard Disability Index: Change from Baseline (Day 12), Median",[10],0.000
same,"SHAQ Standard Disability Index: In-Clinic Visit (Day 12), Mean",[10],0.469
same,"SHAQ Standard Disability Index: In-Clinic Visit (Day 12), Median",[10],0.188
same,"SHAQ Standard Disability Index: Percent Change from Baseline (Day 12), Mean",[10],−16.00%
same,"SHAQ Standard Disability Index: Percent Change from Baseline (Day 12), Median",[10],0.00%
same,mean decrease in patient reported disease severity on the SHAQ,"pooled cilnidipine patients, 10 mg or 20 mg (n=7)",60%
